Here are results for 87 molecules from a melting point compilation (Tetko et al.; mined from patent text by program, amines drawn as free bases though some values may be those of a salt).

Some results are limits rather than exact numbers.

As a reminder, the melting point is the temperature of the solid-liquid transition. `CCCCCCCCCCCCS(=O)(=O)Nc1cc(-c2cc3cc(F)c(F)cc3[nH]2)ccc1OC` gave a melting point of 148 to 149 °C.
The molecule `COC(=O)C=CC=CCSc1ccc2ccccc2c1` returned a melting point of 73 to 75 °C.
`CCOc1ccc2c(c1)C(=O)N(c1ccc3sccc3c1)C2` yielded a melting point of 127 to 129 °C.
In turn, `O=C1Nc2ccc(F)cc2C1c1ncnc2c1cnn2C1CCCC1` (configuration not stated) registered a melting point of 254 to 257 °C.
Consider `O=c1c2c(Cl)cc(Cl)cc2n(Cc2ccccc2)c(=O)n1Cc1ccccc1`, for which the melting point is 104 to 106 °C.
Molecule `CC(=O)N1CC(NC(=O)Nc2cccc(C)c2)C(=O)N(CC(=O)c2ccccc2C)c2ccccc21` (configuration not stated) showed a melting point of 215 to 217 °C.
`O=c1ssc(-c2cnccn2)c1CBr` returned a melting point of 119 °C.
On to `CN1C(=O)N(c2ccc(C(=O)O)cc2)S(=O)(=O)c2ccc(OCC3CCCCC3)cc21`, for which the melting point lay within 240 to 241 °C.
`CCC(=O)Oc1cccc2c1C(=O)c1c(O)cccc1C2C(=O)CC` (configuration not stated) registered a melting point of 125 °C.
Consider `O=C1CC(C(=O)Nc2ccccc2O)CN1` (configuration not stated), for which the melting point was in the range of 133 to 135 °C.
`COC(=O)C=CC(C)C1=CCC2C3CC=C4CC(OC(C)=O)CCC4(C)C3CCC12C` (configuration not stated) had a melting point of 121 to 122 °C.
Regarding `COc1ccc2c(Cc3c(Cl)cncc3Cl)nn(CC(=O)O)c(=O)c2c1`, the melting point was in the range of 221 to 222 °C.
`CCCOc1c([N+](=O)[O-])cccc1[N+](=O)[O-]` came in with a melting point of 119 to 120 °C.
Molecule `CN(C)c1ccc2c(c1)C(=O)OC2` had a melting point of 182 to 185 °C.
For `CCOC(=S)Nc1cccc(-c2ccnc3c(C(=O)c4cccs4)cnn23)c1`, the melting point fell in the range of 209 to 211 °C.
For the molecule `Cc1nc2ccc(S(=O)(=O)n3c(CCCC(=O)O)cc4nc(Cl)ccc43)cc2s1`, the melting point stood at 184 °C.
As for `CNC(=O)n1sc(OC2CCCCC2)nc1=O`, the melting point worked out at 121 °C.
Under `COc1ccccc1CC(=O)NCc1cccs1` stands 84 °C; under `O=C1Cc2cccc(Sc3ccccc3)c2N1`, 160 to 161 °C.
Under `S=C1CN=C(c2ccccc2Cl)c2cc(CCc3ccc(Cl)cc3)sc2N1` stands 201 to 203 °C; under `CC1(C)Oc2ccc(S(=O)(=O)C(F)(F)F)cc2[C@@H](N2Cc3ccccc3C2=O)[C@@H]1O[N+](=O)[O-]` (relative stereo), 190 °C; under `O=C(CN1CCN(c2ccccc2F)CC1)Nc1ccc2c(c1NC(=O)c1ccccc1)C(=O)c1ccccc1C2=O`, 228 to 229 °C.
`O=C(NCc1ccccc1)C1=C(c2ccccc2)C(c2ccccc2)OC1=O` (configuration not stated) displayed a melting point of 173 to 175 °C.
Molecule `Cc1cc(C)nc(NC(=O)N(C)C)c1` gave a melting point of 105 to 108 °C.
`O=C(O)Cc1ccc2c(c1)CCc1ccccc1C2=O` gave a melting point of 154 °C.
In the case of `O=C1c2ccccc2C(=O)N1CC(Cc1c[nH]c([N+](=O)[O-])n1)ON1C(=O)c2ccccc2C1=O` (configuration not stated) it was 119 to 121 °C.
On to `Cc1c(C#N)[nH]n(-c2ccc(Cl)c(Cl)c2)c1=O`, for which the melting point was 210 °C.
`CCCCOc1ccc(C2=CC=CN3CCS(=O)(=O)N=C23)cc1` returned a melting point of 230 to 232 °C.
On to `CC(=O)NCc1ccc(CN2CCN(c3nccc(N(C)C)n3)CC2)cc1`, for which the melting point fell in the range of 152 to 155 °C.
`NC(=O)[C@@H]1[C@H]2CC[C@H](C2)[C@@H]1Nc1nc(Nc2ccc3c(c2)CCC(NCC(F)(F)F)CC3)ncc1Cl` (some centres not stated) gave a melting point of 218 °C.
In the case of `COc1cc2c(O)nc(O)nc2c(OC)c1OC` it was over 255 °C; in that of `CN1CCN(c2cnc(-c3cc(Cl)cc(Cl)c3Cl)c(N)n2)CC1`, 185 °C; in that of `Fc1cccc(CC2(Cc3cccc(F)n3)c3cccnc3-c3ncccc32)n1`, 221 to 225 °C.
`Cc1cc2c3c(ccc(N4CCCC4)c3c1)C(=O)N(O)C2=O`: the melting point fell in the range of 236 to 237 °C.
On to `CN(C)Cc1ccc(CSCCN=CNC#N)o1`, for which the melting point fell in the range of 74 to 76 °C.
`O=c1cc(-c2ccncc2)nc2n(CCCc3c[nH]c4ccccc34)ccn12` showed a melting point of 201 to 203 °C.
Under `CC(c1ccc(-c2ccccc2Cl)cc1)S(=O)CC(=O)O` (configuration not stated) stands 144 to 147 °C.
The molecule `CCCCc1[nH]c2ccc(OC)cc2c1C(=O)c1ccc(OC)cc1` had a melting point of 170 °C.
`Cc1oc(-c2ccc(Cl)cc2)nc1CO` had a melting point of 130 to 131 °C.
`Fc1ccccc1[C@]1(Cn2nc[nH]c2=S)O[C@H]1c1ccccc1Cl` (racemic) gave a melting point of 179 °C.
In the case of `Cn1c(C(F)(F)F)cc(=O)n(-c2c(F)cc(Cl)c3[nH]c(=O)oc23)c1=O` it was 67 to 71 °C.
`CCN1CCC2(CC1)COc1cc3c(cc12)N(C(=O)c1ccc(-c2ccc(C(=O)NN)cc2C)cc1)CC3`: the melting point fell in the range of 222 to 225 °C.
The molecule `CC(C(=O)c1c(O)c2cccnc2n(-c2cccc(OC(F)(F)F)c2)c1=O)c1ccccc1` (configuration not stated) yielded a melting point of 136 to 138 °C.
The molecule `CC(C)(C)OC(=O)N1CCN(c2ccc3c(c2)-n2c(nc4ccccc4c2=O)C3=O)CC1` displayed a melting point of 226 to 228 °C.
In turn, `CCOCc1nc2c(N)nc3ccccc3c2n1Cc1cc(-c2ccccc2)no1` gave a melting point of 215 to 216 °C.
Turning to `CN1C(=O)C(C(C)(C)C)NNC1=S` (configuration not stated), the melting point came out at 214 °C.
In turn, `O=C1N(Cc2ccc(C(F)(F)F)o2)c2ccccc2C12COc1cc3c(cc12)OC(F)(F)O3` (configuration not stated) showed a melting point of 59 to 60 °C.
Under `COc1cc(O)nc(C(C)(C)C)n1` stands 175 °C.
Molecule `Cc1cc(O)c(SCc2cccc3ccccc23)c(=O)o1` yielded a melting point of 170 °C.
In the case of `N#CCN1CCC(=C2c3ccccc3CCn3ccnc32)CC1` it was 220 °C.
In the case of `COC(=O)Cc1cc(O)nn1C`, the melting point was 147 to 148 °C.
In the case of `CCCCOCCOC(=O)C(=O)Nc1nc(-c2ccccc2)cs1` it was 94 to 95 °C; in that of `CCC(=O)Nc1c(C(=O)c2cccc(C)c2)[nH]c2cc(Cl)ccc12`, 152 to 155 °C.
`O=C1C(Cl)=C(c2ccccc2)C(=O)c2ccccc21` yielded a melting point of 111 to 112 °C.
In the case of `Cc1c[nH]c2cccc(C3CCCNC3)c12` (configuration not stated), the melting point stood at 150 °C.
In the case of `COc1cc(OCc2ccccn2)ccc1/C=C/C(=O)CC(=O)/C=C/c1c[nH]c2ccc(F)cc12` it was 183 to 186 °C.
Take `O=C1NCCN1CCN1CCC(c2cn(-c3ccc(F)cc3)c3ccc(O)cc23)CC1`: the melting point was 220 °C.
In turn, `COc1cc(N)c(Cl)cc1C(=O)NCC1CCN(CCCCCCSc2ccccc2)CC1` registered a melting point of 68 to 70 °C.
In the case of `O=C(Nc1cnc(-c2ccccc2)nc1C(=O)O)OCc1cc2cc(-c3ccccc3)ccc2o1` it was 184 to 185 °C; in that of `CC(C)C[C@H](NC(=O)[C@H](CC(=O)OC(C)(C)C)Cc1ccccc1)C(=O)N[C@@H](CC(C)C)[C@@H](O)c1nccs1`, 162 to 163 °C; in that of `COc1ccc(C2CCCCC2)cc1-c1csc(NC(=O)N2CCN(C(=O)C3CCOCC3)CC2)n1`, 276 °C.
As for `Cc1cc2c(c(-c3cc(Cl)ccc3Cl)c1)OC(CN)C2` (configuration not stated), the melting point fell in the range of 155 to 156 °C.
The molecule `CCCN1C(=O)c2cccnc2NS1(=O)=O` displayed a melting point of 208 to 210 °C.
On to `N#CCCn1nc(-c2ccc(OCc3ccccc3)cc2)sc1=O`, for which the melting point was 135 °C.
The molecule `CC(C)c1ccc(S(=O)(=O)n2c(COC(C)(C)C(=O)O)cc3cc(Cl)ccc32)cc1` showed a melting point of 60 °C.
Under `COc1ccccc1NC(=O)Nc1nc(Oc2ccc3ccccc3c2)nc(N(C)CCC(=O)O)n1` stands 178 to 180 °C; under `CCC1CN(O)CCN1O` (configuration not stated), 137 °C.
`CCOc1ccc2nc(SC)c(C=O)cc2c1` displayed a melting point of 124 to 125 °C.
As to `CC1(C)SC(c2ccncc2)NC1C(=O)O` (configuration not stated), the melting point was 149 to 151 °C.
As for `COc1cc(Cc2c(N)nc(N)nc2Cl)cc(OC)c1N`, the melting point was in the range of 222 to 224 °C.
Molecule `Cc1c(-c2cc(Nc3cc4n(n3)CCN(C)C4)c(=O)[nH]n2)cccc1N1Cc2ccc(C(C)(C)C)cc2C1=O` had a melting point of 208 to 210 °C.
For the molecule `CCCc1cc(C(=O)NC2=NC(=O)CN2C)ccc1OC(C(=O)NS(=O)(=O)c1ccc(C(C)C)cc1)c1ccc2c(c1)OCO2` (configuration not stated), the melting point fell in the range of 137 to 139 °C.
As for `CC(C)NCC(O)c1cnc(N)c(Cl)c1` (configuration not stated), the melting point was determined as 146 °C.
For the molecule `NC(=O)Cc1cc(Oc2ccc3c(ccn3C(=O)Nc3ccc(CN4CCNCC4)c(C(F)(F)F)c3)c2)ncn1`, the melting point is 173 to 180 °C.
`COc1ccccc1C(=O)Nc1ccc(F)cc1` returned a melting point of 79.6 to 80.2 °C.
`CCOc1cc(Oc2ccc(S(C)(=O)=O)nc2)cc2cc(C3=NCC(CC(=O)O)S3)[nH]c12` (configuration not stated): the melting point lay in the range of 208 to 210 °C.
In the case of `CCOC(=O)Cn1c(=S)c2ccccc2n(Cc2ccc(Cl)c(Cl)c2)c1=O` it was 128 to 129 °C; in that of `CCOC(=O)CCC(CC(=O)c1ccc(NCc2ccc3ccc4nc(C)[nH]c(=O)c4c3c2)cc1)C(=O)OCC` (racemic), 189 to 190 °C; in that of `Cc1cc(C)c2nnn(C(=O)N3CCOCC3)c2c1`, 115 °C.
The molecule `Clc1ccc2c(Nc3ccccc3)ccnc2c1` showed a melting point of 207 °C.
With `CC(C)[C@H]1C(C(F)(F)F)OC(=O)N1Cc1ccccc1` (some centres not stated), the melting point fell in the range of 92 to 93 °C.
`CC(C)c1ccc(-c2cn(C)cc(-c3ccccc3)c2=O)cc1` returned a melting point of 159 °C.
`O=C(COc1ccc2c(-c3ccccc3F)noc2c1Br)NO`: the melting point lay in the range of 165 to 167 °C.
For `CCc1cnc(N2CCN(C(=O)c3ccc(CNc4nc(-c5ccccc5)nc5ccccc45)cc3)CC2)nc1`, the melting point was in the range of 207 to 208 °C.
In the case of `O=C1c2cccc([N+](=O)[O-])c2OC12CC2` it was 131 to 134 °C; in that of `COC(=O)c1ccc(C2=NOC(c3cc(Cl)cc(Cl)c3)(C(F)(F)F)C2)cc1` (configuration not stated), 94 to 96 °C.
Consider `CN(C)C1(c2ccccc2)CCC(=CC(=O)NCCc2ccccc2)CC1` (configuration not stated), for which the melting point fell in the range of 153 to 155 °C.
